Reference: ChEMBL document CHEMBL1140752, “High confidence predictions of drug-drug interactions: predicting affinities for cytochrome P450 2C9 with multiple computational methods” (J Med Chem, 2008)

Biological target: Cytochrome P450 2C9 (Homo sapiens, UniProt P11712)
Assay: Inhibition of CYP2C9
Type: ADME

Cytochrome P450 2C9, sequence (P11712 whole entry): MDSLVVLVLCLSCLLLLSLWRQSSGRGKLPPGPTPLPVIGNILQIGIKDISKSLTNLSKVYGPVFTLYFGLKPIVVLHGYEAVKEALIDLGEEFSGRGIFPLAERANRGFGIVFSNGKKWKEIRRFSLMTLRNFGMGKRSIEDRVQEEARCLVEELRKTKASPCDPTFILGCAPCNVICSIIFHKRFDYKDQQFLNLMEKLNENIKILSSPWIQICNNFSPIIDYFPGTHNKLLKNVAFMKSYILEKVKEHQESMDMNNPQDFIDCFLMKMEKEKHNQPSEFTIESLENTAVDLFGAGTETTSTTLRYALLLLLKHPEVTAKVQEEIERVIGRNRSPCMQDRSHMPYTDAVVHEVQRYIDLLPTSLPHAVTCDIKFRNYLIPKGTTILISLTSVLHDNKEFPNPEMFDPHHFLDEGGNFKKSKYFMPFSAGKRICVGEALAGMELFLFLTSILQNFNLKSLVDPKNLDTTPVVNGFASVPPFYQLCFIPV

Ki: 101 nM
SMILES: CCc1oc2ccccc2c(=O)c1C(=O)c1cc(Br)c(O)c(Br)c1
